US20240398787A1, “TREATMENT OF MAJOR DEPRESSIVE DISORDER” (AbbVie Inc., priority 2021, published 2024)
Like-named read-outs stand apart in the source and are kept apart here.

What was measured:
[1] = tested on: patients with major depressive disorder (MDD); assay: Clinical Global Impressions-Improvement (CGI-I) score and response, Clinical Study A; assay type: in vivo, human; settings: for CGI-I response rate (score ≤2): LOCF; for CGI-I LS Mean (change from baseline to week 6) / LSMD vs placebo, CGI-I: MMRM
Method: A global, multicenter, randomized, double-blind (DB), placebo-controlled, parallel-group, fixed-dose study compared cariprazine 1.5 mg/day and cariprazine 3 mg/day with placebo as an adjunctive treatment to ongoing ADT in outpatients with a diagnosis of MDD (via the Diagnostic and Statistical Manual of Mental Disorders, Fifth Edition [DSM-5]) having an inadequate response, as measured by the modified Antidepressant Treatment Response Questionnaire (ATRQ), to 1 to 3 antidepressants administered during the current episode at an adequate dose and adequate duration. Adequate dose was defined as a dose above the minimum labeled dose (per package insert). Adequate duration was defined as continuous ADT treatment for at least 6 weeks, with a minimum of 3 of 6 weeks above the minimal dose.
The study consisted of up to 14 days screening (with up to an additional 7 days of needed) and washout of prohibited medications followed by 6 weeks of double-blind (DB) treatment followed by a 4-week safety follow-up. At the end of the screening period, patients meeting the entry criteria for the study were randomized (1:1:1) to 1 of 3 double-blind treatment groups. Study treatment groups were: cariprazine 1.5 mg/day+antidepressant therapy and cariprazine 3 mg/day+antidepressant therapy. The control group received matching placebo+antidepressant therapy.
Dosage/Dose Regimen: Investigational product (cariprazine or placebo) in the form of capsules packaged in blister packs will be provided. No investigational product was administered during the screening/washout period; patients continued the same antidepressant and dose they were on at screening. Patients were taking more than one antidepressant at screening, regardless of the indication, discontinued all other antidepressants prior to baseline (Visit 2). During the double-blind treatment period (6 weeks), patients were administered 1 capsule orally per day in addition to their ongoing ADT. Patients in the 1.5 mg/day+ADT arm were administered 1.5 mg+ADT starting at Visit 2 (Week 0). Patients in the 3 mg/day+ADT arm were administered 1.5 mg+ADT starting at Visit 2 (Week 0) for 2 weeks and then titrate to 3 mg/day+ADT starting at Visit 4 (Week 2). Patients were supplied with identically appearing capsules of either cariprazine 1.5 mg, cariprazine 3 mg, or placebo.
A randomized, double-blind, placebo-controlled, multicenter trial with 759 participants was conducted in United States, Bulgaria, Estonia, Germany, Hungary, Ukraine, and the United Kingdom. Following a screening period of up to 14 days (with up to an additional 7 days if needed), which included a washout of prohibited psychotropic medications except for ongoing ADT, patients with a partial response to their antidepressant monotherapy were randomized into three treatment groups (1:1:1). One group received cariprazine 1.5 mg/d+ADT, one received cariprazine 3.0 mg/d+ADT, and one group received placebo+ADT. All participants randomized to cariprazine began on 1.5 mg/d; cariprazine 1.5 mg/d patients remained at that dosage, while cariprazine 3.0 mg/d patients received 1.5 mg/d for 2 weeks and increased to 3.0 mg/d on day 15.
The primary and secondary efficacy parameters were change from baseline to week 6 in Montgomery-Åsberg Depression Rating Scale (MADRS) total score and Clinical Global Impressions-Severity (CGI-S) score, respectively (screening, baseline, and weeks 1, 2, 4, and 6). Additional efficacy parameters (screening, baseline, and ≥1 double-blind visit) included: MADRS response (≥50% MADRS total score reduction) and remission (MADRS total score ≤10); change from baseline in HAMD-17 total score and Hamilton Anxiety Rating Scale (HAM-A) total score (32); and Clinical Global Impressions-Improvement (CGI-I) score and response (CGI-I score ≤2). […]

[2] = tested on: MDD patients who had inadequate response to ongoing antidepressant treatment; settings: adjunctive, Durgam et al. 2016, cited from earlier work

SMILES: CN(C)C(=O)N[C@H]1CC[C@H](CCN2CCN(c3cccc(Cl)c3Cl)CC2)CC1 [Cariprazine, trans-N-{4-[2-[4-(2,3-dichlorophenyl)piperazin-1-yl]ethyl]cyclohexyl}-N′,N′-dimethylurea]
- CGI-I response rate (score ≤2) ([1]; 1.5 mg/d + ADT, week 6): 51.2%
- CGI-I LS Mean (change from baseline to week 6) ([1]; 1.5 mg/d + ADT, week 6): 2.6
- LSMD vs placebo, CGI-I ([1]; 1.5 mg/d + ADT, week 6): −0.3
- CGI-I responders (score ≤2) ([1]; 1.5 mg/day + ADT, week 1): 29 (11.6) n (%)
- CGI-I response, odds ratio vs placebo (95% CI) ([1]; 1.5 mg/day + ADT, week 1): 2.0 (1.0, 3.8)
- CGI-I responders (score ≤2) ([1]; 1.5 mg/day + ADT, week 2): 67 (26.8) n (%)
- CGI-I response, odds ratio vs placebo (95% CI) ([1]; 1.5 mg/day + ADT, week 2): 1.4 (0.9, 2.1)
- CGI-I responders (score ≤2) ([1]; 1.5 mg/day + ADT, week 4): 115 (46.0) n (%)
- CGI-I response, odds ratio vs placebo (95% CI) ([1]; 1.5 mg/day + ADT, week 4): 1.6 (1.1, 2.3)
- CGI-I responders (score ≤2) ([1]; 1.5 mg/day + ADT, week 6): 128 (51.2) n (%)
- CGI-I response rate (score ≤2) ([1]; 3.0 mg/d + ADT, week 6): 50.4%
- CGI-I LS Mean (change from baseline to week 6) ([1]; 3 mg/d + ADT, week 6): 2.6
- LSMD vs placebo, CGI-I ([1]; 3 mg/d + ADT, week 6): −0.3
- CGI-I responders (score ≤2) ([1]; 3 mg/day + ADT, week 1): 20 (7.9) n (%)
- CGI-I response, odds ratio vs placebo (95% CI) ([1]; 3 mg/day + ADT, week 1): 1.3 (0.6, 2.6)
- CGI-I responders (score ≤2) ([1]; 3 mg/day + ADT, week 2): 62 (24.6) n (%)
- CGI-I response, odds ratio vs placebo (95% CI) ([1]; 3 mg/day + ADT, week 2): 1.2 (0.8, 1.9)
- CGI-I responders (score ≤2) ([1]; 3 mg/day + ADT, week 4): 102 (40.5) n (%)
- CGI-I response, odds ratio vs placebo (95% CI) ([1]; 3 mg/day + ADT, week 4): 1.3 (0.9, 1.8)
- CGI-I responders (score ≤2) ([1]; 3 mg/day + ADT, week 6): 127 (50.4) n (%)
- LSMD vs placebo, MADRS total score ([2]; 1-2 mg per day variable dosing): −0.9
- LSMD vs placebo, MADRS total score ([2]; 2-4.5 mg per day variable dosing): −2.2
